In US6562359B2, “Pest repellent” (Sumitomo Chemical Company, Ltd., priority 1997, dated 2003):

Key:
Format in all cases: in vivo
Tineola bisselliella = experiment: Test Example 6: entrance inhibition in treated carton with wool muslin; settings: Tineola bisselliella female adults; 1 mg/cup (carton with wool muslin)
Excerpt: Insect entrance inhibition rate (%)={(number of insects attracted into the non-treated section−number of insects attracted into the treated section)/number of insects attracted into the non-treated section}×100 A lower end of a 4.5 cm×4.5 cm×4.5 cm carton was cut out to form a 0.5 cm×4.5 cm entrance of insects. A filter paper (2 cm×2 cm) impregnated with an acetone-diluted solution of the test substance was placed in the carton, and a 1 cm×1 cm piece of wool muslin was laid on said filter paper. This carton was set at a corner of a nylon gauze-made cage (20 cm×20 cm×30 cm), and a carton containing a filter paper not treated with hyssop oil and having wool muslin laid thereon was set at the diagonally opposite corner of the cage. About 60 female adults of Tineola bisselliella one to 2 days old after emergence were released in the cage, and the number of the insects which entered the cartons was counted. The test was conducted on a two-replication system.

[1] = tested on: mosquitoes (Culex pipiens pallens); experiment: Test Example 2: mosquito entrance inhibition in treated cup, overnight luring; settings: 3.0 mg/cup, tacky trap in cup
Meqaselia spiracularis = experiment: Test Example 4: entrance inhibition in treated cup, maggot rearing medium lure; settings: 100 mg/cup, 30 minutes after setting
[2] = tested on: houseflies (Musca domestica); experiment: Test Example 3: housefly entrance inhibition in treated cup; settings: 100 mg/cup, powder milk and sugar lure
Clogmia albipunctata = experiment: Test Example 5: entrance inhibition in treated cup, in the dark; settings: 30 mg/cup, 2 hours after setting
[3] = tested on: mosquitoes (Aedes aegypti); experiment: Test Example 1: mosquito entrance inhibition in treated cup; settings: Aedes aegypti females; 0.3 mg/cup on filter paper; counted 10 minutes after setting; disposal warmer lure
Method: A lower side part of a plastic cup (base diameter: 10 cm; top opening diameter: 12 cm; height: 7 cm; capacity: about 650 ml) was cut out to form a 2 cm square entrance of mosquitoes. At the center of said cup was placed a twofold disposal warmer (Kiribai New Hand Warmer, 24-hour type, 13.5×10 cm) as a lure for mosquitoes. A 9 cm-diameter filter paper was treated with a 1 ml solution of the test substance diluted with acetone to a predetermined concentration, and after acetone was air dried, said filter paper was attached to the inside of the cover of said cup with a double-side adhesive tape. This cover was fitted on said cup, allowing the test substance to volatilize and diffuse in the cup for one minute.
In a nylon gauze-made cage (50 cm×50 cm×50 cm) holding about 600 mosquitoes (Aedes aegypti) one to 2 weeks old after emergence (sex ratio=ca. 1:1), 2 said cups were placed cater-cornered across the cage, each of said cups being positioned about 10 cm away from the cage corner, to lure the mosquitoes. […] 10 minutes after setting the cups at said positions in the cage, each cup was taken out of the cage and the number of the female insects attracted into the cup was counted. Based on the obtained result, the insect entrance inhibition rate was calculated from the following equation: […]

For `CCN(CC)C(=O)c1cccc(C)c1` [DEET, N,N-diethyl-m-toluamide], the Entrance inhibition rate (Tineola bisselliella) was 9.5%, the Entrance inhibition rate [1] was −10% and the Entrance inhibition rate (Meqaselia spiracularis) was 34%. It also gave an Entrance inhibition rate [2] of 34%, an Entrance inhibition rate (Clogmia albipunctata) of 50% and an Entrance inhibition rate [3] of 38%.
